Experimental data: patent US7446079B2, “Perfumes for rinse-off systems” (Givaudan Fragrances Corporation, priority 2005, dated 2008)
Like-named read-outs stand apart in the source and are kept apart here.

How the values were obtained:
[1] = GC-MS headspace release profile of Tropical Fruit perfume in shampoo, 1/100 dilution in water; type: physicochemical
Procedure: A 10 gram sample of formulation and fragrance was added to an empty 1000 ml pyrex beaker. This beaker was then filled with 1000 ml of 120 F tap water. Beaker with diluted shampoo sample was then immediately placed into a semi-enclosed plexiglass chamber.
Headspace Sampling: Once beaker was placed into chamber a Carboxan SPME field fiber was held at the top-side opening of the chamber over the beaker containing the sample. […] […] Top of plexiglass chamber was held open for entire 5 minutes of headspace sampling.

[2] = in water, cited from earlier work; for exp ODT (ppb) water: experimental values from the Booleans database

GC Abundance ([1]; headspace at 40 seconds) | GC Abundance ([1]; headspace at 50 seconds) | GC Abundance ([1]; headspace at 30 seconds) | GC Abundance ([1]; headspace at 10 seconds) | GC Abundance ([1]; headspace at 20 seconds) | SMILES | ODT (ppb) ([2]; Table 13) | ODT (ppb) ([2]; Table 9) | ODT (ppb) ([2]; Table 11) | exp ODT (ppb) water [2]
2000 | 9000 |  |  |  | CCCCCCC(C=O)=Cc1ccccc1 [HEXYL CINNAMIC ALDEHYDE] | less than 50 ppb |  |  | 
10000 | 18000 | 2000 |  |  | CC(=O)C=CC1=C(C)CCCC1(C)C [IONONE BETA PURE, 4-(2,6,6-Trimethyl-1-cyclohexen-1-yl)-3-buten-2-one] | less than 50 ppb | less than 50 ppb | less than 50 ppb | 4-6 ppb
18000 | 18000 | 18000 | 500 | 18000 | C=CC(C)(O)CCC=C(C)C (centres unmarked) [LINALOOL] | less than 50 ppb | less than 50 ppb | less than 50 ppb | 
3000 | 1500 | 4000 | 1000 | 4000 | CCCC(C)C(=O)OCC (centres unmarked) [MANZANATE, Ethyl 2-methylpentanoate] |  |  |  | 0.0030 ppb
14000 | 14000 | 14000 |  | 10000 | CC(C)=CC1CC(C)CCO1 (stereo not drawn) [ROSE OXIDE (HIGH CIS), Tetrahydro-4-methyl-2-(2-methylpropen-1-yl)pyran] |  |  |  | 0.5 ppb
10000 | 6000 | 14000 | 1000 | 14000 | CC1=CC(C)C(C=O)CC1 (centres unmarked) [TRIPLAL] | less than 50 ppb | less than 50 ppb | less than 50 ppb | 
18000 | 20000 | 14000 |  | 5000 | CC(=O)OC1CCCCC1C(C)(C)C (centres unmarked) [VERDOX] | less than 50 ppb | less than 50 ppb | less than 50 ppb | 
1000 | 5000 |  |  |  | CC=CC(=O)C1C(C)=CCCC1(C)C (stereo not drawn) [alpha-DAMASCONE, α-1-(2,6,6-Trimethyl-2-cyclohexen-1-yl)-2-buten-1-one] |  |  |  | 1.5 ppb
